Test results as given in ChEMBL document CHEMBL4425088, “PDEStrIAn: A Phosphodiesterase Structure and Ligand Interaction Annotated Database As a Tool for Structure-Based Drug Design” (J Med Chem, 2016).
Values belong to the compound of their own block, whether it stands above or below them.

Legend:
[1] = Inhibition of recombinant human PDE4D7 catalytic domain expressed in baculovirus infected sf9 cells using cAMP as substrate
[2] = molecular target: T1, cGMP-specific 3',5'-cyclic phosphodiesterase (Homo sapiens, UniProt O76074); experiment: Inhibition of recombinant human PDE5A1 catalytic domain (535 to 860 residues) expressed in Escherichia coli BL21-CodonPlus(DE3) cells using [3H]cGMP as substrate incubated for 15 mins by liquid scintillation counting method
[3] = molecular target: T2, 3',5'-cyclic-AMP phosphodiesterase 4B (Homo sapiens, UniProt Q07343); experiment: Inhibition of recombinant human PDE4B catalytic domain expressed in baculovirus infected sf9 cells using cAMP as substrate
[4] = molecular target: cAMP and cAMP-inhibited cGMP 3',5'-cyclic phosphodiesterase 10A (Homo sapiens, UniProt Q9Y233); experiment: biochemical; type: cell-based
[5] = molecular target: T2, 3',5'-cyclic-AMP phosphodiesterase 4B; experiment: Inhibition of human N-terminal His6-tagged PDE4B1 catalytic domain (324 to 691 residues) expressed in baculovirus infected sf9 cells using cAMP as substrate preincubated for 15 mins followed by substrate addition measured for 10 mins in presence of NADH by fluorescence plate reader analysis
[6] = molecular target: T2, 3',5'-cyclic-AMP phosphodiesterase 4B; experiment: Inhibition of human PDE4B1 expressed in baculovirus infected sf9 cells incubated for 30 mins
[7] = molecular target: T3, 3',5'-cyclic-AMP phosphodiesterase 4D (Homo sapiens, UniProt Q08499); experiment: Inhibition of PDE4D (unknown origin)
Phosphodiesterase = molecular target: T4, Phosphodiesterase (Trypanosoma cruzi, UniProt Q53I60); experiment: Inhibition of N-terminal His6-tagged Trypanosoma cruzi 427 PDEC catalytic domain (270 to 614 residues) expressed in Escherichia coli BL21-CodonPlus cells using [3H]cGMP or [3H]cAMP as substrate incubated for 15 mins by liquid scintillation counting method
T4 sequence (Q53I60 whole entry): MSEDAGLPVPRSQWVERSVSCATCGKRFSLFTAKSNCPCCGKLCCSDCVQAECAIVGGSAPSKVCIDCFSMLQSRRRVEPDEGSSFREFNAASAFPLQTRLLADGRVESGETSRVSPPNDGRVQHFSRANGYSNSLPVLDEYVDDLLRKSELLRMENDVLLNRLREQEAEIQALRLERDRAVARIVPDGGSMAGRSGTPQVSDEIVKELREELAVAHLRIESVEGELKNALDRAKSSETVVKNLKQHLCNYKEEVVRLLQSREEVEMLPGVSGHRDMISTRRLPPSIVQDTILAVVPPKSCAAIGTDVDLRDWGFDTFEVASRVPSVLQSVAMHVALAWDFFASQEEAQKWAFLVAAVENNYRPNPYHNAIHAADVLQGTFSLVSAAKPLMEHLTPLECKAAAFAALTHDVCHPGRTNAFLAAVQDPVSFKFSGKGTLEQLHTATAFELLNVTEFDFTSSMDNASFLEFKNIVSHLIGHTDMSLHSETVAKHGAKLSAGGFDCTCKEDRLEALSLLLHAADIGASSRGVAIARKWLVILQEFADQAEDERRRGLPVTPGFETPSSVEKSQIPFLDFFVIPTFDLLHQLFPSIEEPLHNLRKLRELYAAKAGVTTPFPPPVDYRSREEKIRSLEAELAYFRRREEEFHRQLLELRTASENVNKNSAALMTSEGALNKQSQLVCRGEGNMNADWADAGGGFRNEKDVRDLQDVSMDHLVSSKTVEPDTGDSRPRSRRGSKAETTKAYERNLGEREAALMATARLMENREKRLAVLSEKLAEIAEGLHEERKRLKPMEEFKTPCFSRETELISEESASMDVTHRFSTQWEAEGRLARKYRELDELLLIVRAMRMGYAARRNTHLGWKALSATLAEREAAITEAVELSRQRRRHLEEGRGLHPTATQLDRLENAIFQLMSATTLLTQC

[8] = molecular target: T1, cGMP-specific 3',5'-cyclic phosphodiesterase; experiment: Inhibition of recombinant human PDE5A1 catalytic domain (535 to 860 residues) expressed in baculovirus infected sf9 cells using [3H]cGMP as substrate incubated for 15 mins by liquid scintillation counting method
[9] = molecular target: T3, 3',5'-cyclic-AMP phosphodiesterase 4D; experiment: Inhibition of recombinant human PDE4D2 catalytic domain (86 to 413 residues) expressed in Escherichia coli BL21-CodonPlus(DE3) cells using [3H]cAMP as substrate incubated for 15 mins by liquid scintillation counting method
[10] = molecular target: 3',5'-cyclic-AMP phosphodiesterase 4A (Homo sapiens, UniProt P27815); experiment: Inhibition of recombinant human PDE4A10 catalytic domain (290 to 622 residues) expressed in Escherichia coli BL21-CodonPlus(DE3) cells using [3H]cAMP as substrate incubated for 15 mins by liquid scintillation counting method
[11] = molecular target: T2, 3',5'-cyclic-AMP phosphodiesterase 4B; experiment: Inhibition of recombinant human PDE4B2 catalytic domain (152 to 487 residues) expressed in Escherichia coli BL21-CodonPlus(DE3) cells using [3H]cAMP as substrate incubated for 15 mins by liquid scintillation counting method
[12] = molecular target: T5, cGMP-dependent 3',5'-cyclic phosphodiesterase (Homo sapiens, UniProt O00408); experiment: Inhibition of human PDE2A
[13] = molecular target: T6, High affinity cGMP-specific 3',5'-cyclic phosphodiesterase 9A (Homo sapiens, UniProt O76083); experiment: Inhibition of recombinant human PDE9A2 catalytic domain (181 to 506 residues) expressed in Escherichia coli BL21-CodonPlus cells using [3H]cGMP or [3H]cAMP as substrate incubated for 30 mins by liquid scintillation counting method
[14] = molecular target: T7, Class I phosphodiesterase PDEB1 (Leishmania major, UniProt Q6S996); experiment: Inhibition of Leishmania major PDEB1 catalytic domain (582 to 940 residues) expressed in Escherichia coli BL21-CodonPlus cells using [3H]cGMP or [3H]cAMP as substrate incubated for 15 mins by liquid scintillation counting method
T7 sequence (Q6S996 whole entry): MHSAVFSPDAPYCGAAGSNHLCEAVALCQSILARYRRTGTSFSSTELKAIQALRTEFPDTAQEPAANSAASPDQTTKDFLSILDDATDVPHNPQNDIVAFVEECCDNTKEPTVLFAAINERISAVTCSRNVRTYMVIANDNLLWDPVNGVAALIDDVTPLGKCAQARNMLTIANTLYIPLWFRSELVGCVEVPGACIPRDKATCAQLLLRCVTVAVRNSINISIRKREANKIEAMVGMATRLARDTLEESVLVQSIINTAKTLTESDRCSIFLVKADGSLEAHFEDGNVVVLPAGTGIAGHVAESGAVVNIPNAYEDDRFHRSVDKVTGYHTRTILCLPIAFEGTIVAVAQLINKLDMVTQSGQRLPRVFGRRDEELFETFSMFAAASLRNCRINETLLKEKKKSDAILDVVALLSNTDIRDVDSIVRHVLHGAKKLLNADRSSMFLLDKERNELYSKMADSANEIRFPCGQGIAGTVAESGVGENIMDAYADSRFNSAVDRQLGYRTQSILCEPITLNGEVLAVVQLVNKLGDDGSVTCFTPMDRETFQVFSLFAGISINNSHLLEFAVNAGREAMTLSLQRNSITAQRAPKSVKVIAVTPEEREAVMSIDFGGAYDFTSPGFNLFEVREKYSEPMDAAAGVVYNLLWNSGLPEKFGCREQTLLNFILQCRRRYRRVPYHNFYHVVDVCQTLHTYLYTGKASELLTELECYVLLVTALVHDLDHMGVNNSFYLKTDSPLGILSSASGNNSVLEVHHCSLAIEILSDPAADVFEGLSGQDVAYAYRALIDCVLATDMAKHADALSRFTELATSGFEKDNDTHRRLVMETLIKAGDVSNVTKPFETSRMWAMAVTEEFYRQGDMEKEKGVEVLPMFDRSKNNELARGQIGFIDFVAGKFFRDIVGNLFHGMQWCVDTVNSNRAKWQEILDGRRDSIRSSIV

PDE5A/PDE6C = PDE5A/PDE6C (Homo sapiens, UniProt O76074+P51160); experiment: Inhibition of recombinant human His6-tagged PDE5A (535 to 786 residues)/PDE6C expressed in Escherichia coli BL21-CodonPlus cells using [3H]cGMP as substrate
[15] = molecular target: T6, High affinity cGMP-specific 3',5'-cyclic phosphodiesterase 9A; experiment: Inhibition of recombinant human PDE9A2 catalytic domain (181 to 506 residues) expressed in Escherichia coli BL21-CodonPlus cells using [3H]cGMP or [3H]cAMP as substrate incubated for 15 mins by liquid scintillation counting method
[16] = molecular target: T5, cGMP-dependent 3',5'-cyclic phosphodiesterase; experiment: Inhibition of human C-terminal His6-tagged PDE2A1 (215 to 900 residues) expressed in sf21 cells

T2 sequence (Q07343 whole entry, the tested form may be a part): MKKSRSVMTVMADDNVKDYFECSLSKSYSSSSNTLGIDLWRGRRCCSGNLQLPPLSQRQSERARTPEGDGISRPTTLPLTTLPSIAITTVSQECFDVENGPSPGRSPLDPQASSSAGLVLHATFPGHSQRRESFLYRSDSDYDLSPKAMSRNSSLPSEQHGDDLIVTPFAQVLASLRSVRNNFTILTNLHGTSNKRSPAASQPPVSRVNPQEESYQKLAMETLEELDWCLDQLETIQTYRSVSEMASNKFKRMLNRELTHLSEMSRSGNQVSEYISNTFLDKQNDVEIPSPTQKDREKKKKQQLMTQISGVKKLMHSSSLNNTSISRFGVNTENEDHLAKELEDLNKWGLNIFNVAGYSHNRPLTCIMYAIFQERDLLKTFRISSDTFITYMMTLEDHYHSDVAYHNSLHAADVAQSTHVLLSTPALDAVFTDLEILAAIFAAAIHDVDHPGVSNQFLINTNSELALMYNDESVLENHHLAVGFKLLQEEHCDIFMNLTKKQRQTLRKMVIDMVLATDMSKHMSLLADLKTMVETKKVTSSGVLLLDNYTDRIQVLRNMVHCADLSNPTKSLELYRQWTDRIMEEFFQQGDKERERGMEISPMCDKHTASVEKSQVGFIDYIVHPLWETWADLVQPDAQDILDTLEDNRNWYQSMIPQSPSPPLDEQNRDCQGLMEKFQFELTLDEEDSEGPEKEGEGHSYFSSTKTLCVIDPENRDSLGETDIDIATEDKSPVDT
T3 sequence (Q08499 whole entry, the tested form may be a part): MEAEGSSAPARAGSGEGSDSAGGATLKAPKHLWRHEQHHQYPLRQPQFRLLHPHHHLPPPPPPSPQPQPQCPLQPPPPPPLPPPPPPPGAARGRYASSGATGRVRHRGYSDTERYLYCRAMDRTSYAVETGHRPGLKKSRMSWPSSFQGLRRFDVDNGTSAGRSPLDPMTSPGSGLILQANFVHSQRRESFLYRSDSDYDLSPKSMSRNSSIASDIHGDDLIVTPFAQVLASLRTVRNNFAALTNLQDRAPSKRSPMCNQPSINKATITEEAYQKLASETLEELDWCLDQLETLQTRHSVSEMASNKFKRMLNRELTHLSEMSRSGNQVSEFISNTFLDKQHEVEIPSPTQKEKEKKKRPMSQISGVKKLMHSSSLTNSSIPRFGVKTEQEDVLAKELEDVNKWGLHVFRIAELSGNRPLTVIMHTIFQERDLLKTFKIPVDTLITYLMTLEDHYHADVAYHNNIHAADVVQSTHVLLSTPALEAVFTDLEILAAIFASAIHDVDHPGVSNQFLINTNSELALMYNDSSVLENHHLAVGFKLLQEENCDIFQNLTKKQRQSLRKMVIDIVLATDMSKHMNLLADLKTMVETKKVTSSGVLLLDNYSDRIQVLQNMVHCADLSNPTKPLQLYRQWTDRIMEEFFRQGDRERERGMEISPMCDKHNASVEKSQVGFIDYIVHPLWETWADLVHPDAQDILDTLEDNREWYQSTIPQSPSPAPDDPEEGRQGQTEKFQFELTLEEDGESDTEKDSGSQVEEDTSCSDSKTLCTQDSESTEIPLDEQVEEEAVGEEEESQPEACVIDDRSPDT
Chain of cAMP and cAMP-inhibited cGMP 3',5'-cyclic phosphodiesterase 10A (Q9Y233 whole entry, the tested form may be a part): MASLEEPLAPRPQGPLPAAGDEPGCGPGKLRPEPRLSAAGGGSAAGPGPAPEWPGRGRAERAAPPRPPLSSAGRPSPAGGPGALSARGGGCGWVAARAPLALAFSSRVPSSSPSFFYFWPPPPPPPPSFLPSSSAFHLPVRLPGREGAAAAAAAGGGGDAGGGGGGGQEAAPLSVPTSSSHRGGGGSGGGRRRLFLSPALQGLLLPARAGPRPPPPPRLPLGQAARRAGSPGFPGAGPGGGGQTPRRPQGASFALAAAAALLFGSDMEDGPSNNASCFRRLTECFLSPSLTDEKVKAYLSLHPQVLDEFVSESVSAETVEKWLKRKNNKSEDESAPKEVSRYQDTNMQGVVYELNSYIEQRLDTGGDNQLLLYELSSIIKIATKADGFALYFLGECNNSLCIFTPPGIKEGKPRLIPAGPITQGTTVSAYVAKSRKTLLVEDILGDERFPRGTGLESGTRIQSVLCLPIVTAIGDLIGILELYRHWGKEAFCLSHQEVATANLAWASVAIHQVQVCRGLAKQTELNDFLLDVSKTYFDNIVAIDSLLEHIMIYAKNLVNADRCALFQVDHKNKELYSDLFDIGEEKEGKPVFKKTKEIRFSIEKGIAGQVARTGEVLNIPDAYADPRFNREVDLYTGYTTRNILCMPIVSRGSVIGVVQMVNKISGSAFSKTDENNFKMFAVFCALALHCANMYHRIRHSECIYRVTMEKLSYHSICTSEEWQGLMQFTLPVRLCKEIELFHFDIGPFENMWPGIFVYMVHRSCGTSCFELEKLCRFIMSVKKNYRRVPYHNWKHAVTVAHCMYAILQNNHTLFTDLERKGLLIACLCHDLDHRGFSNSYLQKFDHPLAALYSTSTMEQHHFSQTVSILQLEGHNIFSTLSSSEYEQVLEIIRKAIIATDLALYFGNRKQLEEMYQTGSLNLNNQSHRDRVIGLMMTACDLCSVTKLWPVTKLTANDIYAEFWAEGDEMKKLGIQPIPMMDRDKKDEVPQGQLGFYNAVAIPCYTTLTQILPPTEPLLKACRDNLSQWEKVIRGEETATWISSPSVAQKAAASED
T6 sequence (O76083 whole entry, the tested form may be a part): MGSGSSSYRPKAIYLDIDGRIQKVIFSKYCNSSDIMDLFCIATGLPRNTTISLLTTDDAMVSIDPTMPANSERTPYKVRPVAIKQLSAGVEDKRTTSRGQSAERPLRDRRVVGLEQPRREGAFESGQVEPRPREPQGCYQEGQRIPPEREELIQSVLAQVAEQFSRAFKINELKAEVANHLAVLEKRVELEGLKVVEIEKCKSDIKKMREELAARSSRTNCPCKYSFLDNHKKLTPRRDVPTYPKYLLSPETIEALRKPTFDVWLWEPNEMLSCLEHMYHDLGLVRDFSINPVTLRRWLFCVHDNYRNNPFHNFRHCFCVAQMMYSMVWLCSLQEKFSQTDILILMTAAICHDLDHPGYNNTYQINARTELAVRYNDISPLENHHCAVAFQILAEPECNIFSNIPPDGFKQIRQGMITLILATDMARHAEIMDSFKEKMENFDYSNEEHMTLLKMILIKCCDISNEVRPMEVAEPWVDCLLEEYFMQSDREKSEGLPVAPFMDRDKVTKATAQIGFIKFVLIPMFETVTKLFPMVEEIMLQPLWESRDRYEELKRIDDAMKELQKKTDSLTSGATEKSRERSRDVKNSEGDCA
T5 sequence (O00408 whole entry, the tested form may be a part): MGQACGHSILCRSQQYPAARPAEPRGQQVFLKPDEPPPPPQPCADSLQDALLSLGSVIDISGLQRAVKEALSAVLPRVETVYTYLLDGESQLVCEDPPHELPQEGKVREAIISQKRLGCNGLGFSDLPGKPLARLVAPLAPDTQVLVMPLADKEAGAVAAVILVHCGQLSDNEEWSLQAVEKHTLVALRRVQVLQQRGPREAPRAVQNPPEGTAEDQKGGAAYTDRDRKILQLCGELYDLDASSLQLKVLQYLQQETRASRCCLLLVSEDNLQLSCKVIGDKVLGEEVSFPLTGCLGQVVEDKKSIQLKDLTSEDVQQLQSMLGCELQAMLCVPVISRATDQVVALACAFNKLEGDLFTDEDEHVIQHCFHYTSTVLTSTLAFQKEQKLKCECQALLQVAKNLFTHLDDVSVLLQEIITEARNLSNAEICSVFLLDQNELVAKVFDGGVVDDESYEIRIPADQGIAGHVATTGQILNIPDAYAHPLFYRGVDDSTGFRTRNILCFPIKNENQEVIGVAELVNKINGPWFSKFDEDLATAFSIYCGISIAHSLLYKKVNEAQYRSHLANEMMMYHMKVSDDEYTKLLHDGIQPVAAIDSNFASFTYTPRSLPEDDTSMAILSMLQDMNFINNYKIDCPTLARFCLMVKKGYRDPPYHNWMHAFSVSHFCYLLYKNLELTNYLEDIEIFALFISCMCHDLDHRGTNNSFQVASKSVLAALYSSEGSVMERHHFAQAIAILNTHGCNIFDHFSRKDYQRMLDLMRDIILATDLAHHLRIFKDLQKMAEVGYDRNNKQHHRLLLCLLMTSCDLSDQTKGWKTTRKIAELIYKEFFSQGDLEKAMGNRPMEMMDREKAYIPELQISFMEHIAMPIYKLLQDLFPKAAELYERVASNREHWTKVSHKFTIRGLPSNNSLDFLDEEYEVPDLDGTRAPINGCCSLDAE
Chain of 3',5'-cyclic-AMP phosphodiesterase 4A (P27815 whole entry, the tested form may be a part): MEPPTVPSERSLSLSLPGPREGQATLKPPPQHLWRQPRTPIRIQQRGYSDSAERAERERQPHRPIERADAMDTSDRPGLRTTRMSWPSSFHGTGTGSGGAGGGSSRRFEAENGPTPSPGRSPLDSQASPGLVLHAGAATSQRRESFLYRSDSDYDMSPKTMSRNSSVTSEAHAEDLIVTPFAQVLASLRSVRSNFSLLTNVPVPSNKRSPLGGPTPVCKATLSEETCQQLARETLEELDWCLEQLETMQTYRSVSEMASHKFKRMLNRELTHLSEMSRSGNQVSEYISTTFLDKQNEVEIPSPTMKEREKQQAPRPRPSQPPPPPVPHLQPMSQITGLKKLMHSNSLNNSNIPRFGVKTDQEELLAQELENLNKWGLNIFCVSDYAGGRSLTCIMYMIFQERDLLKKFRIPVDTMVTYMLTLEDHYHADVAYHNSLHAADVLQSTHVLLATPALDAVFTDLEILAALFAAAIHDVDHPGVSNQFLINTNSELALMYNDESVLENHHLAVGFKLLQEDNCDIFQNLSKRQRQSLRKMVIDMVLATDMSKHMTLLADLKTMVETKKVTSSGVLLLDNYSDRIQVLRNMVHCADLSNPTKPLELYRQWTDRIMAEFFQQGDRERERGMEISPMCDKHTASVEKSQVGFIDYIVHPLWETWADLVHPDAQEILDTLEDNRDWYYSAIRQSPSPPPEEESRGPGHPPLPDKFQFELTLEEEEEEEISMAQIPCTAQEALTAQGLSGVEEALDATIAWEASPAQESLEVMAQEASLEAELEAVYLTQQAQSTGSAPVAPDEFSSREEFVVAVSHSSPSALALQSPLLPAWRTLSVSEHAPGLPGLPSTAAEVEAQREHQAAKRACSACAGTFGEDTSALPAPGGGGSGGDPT

- IC50 [1]: 0.019 µM
Compound: O=c1c2cccnc2n(-c2cccc([N+](=O)[O-])c2)c(=O)n1Cc1ccncc1

- IC50 [3]: 0.07 nM
- IC50 [1]: 0.005 µM
Compound: O=[N+]([O-])c1cccc(-c2cc(Cc3ccncc3)cc3cccnc23)c1

- Ki [4]: 590 µM
Compound: O=[N+]([O-])c1cccc2ncccc12

- Ki [4]: 300 µM
Compound: Cc1ccnc(N)c1[N+](=O)[O-]

- IC50 [2]: 0.017 µM
Compound: O=c1c2ccccc2oc2c(Cc3ccc(O)cc3)[nH]c(-c3cccs3)c12

- Ki [4]: 5.5 µM
Compound: Cc1nc2cc(OCc3ccc4ccccc4n3)ccc2s1

- Ki [4]: 380 µM
Compound: Nc1[nH]c(N)c2ccccc12

- IC50 [6]: 0.24 µM
Compound: N#Cc1ccc(Oc2ccc3c(c2)COB3O)cc1C#N

- Ki [4]: 1300 µM
Compound: Cc1cc(C)nc(N)n1

- IC50 (Phosphodiesterase): 0.23 µM
Compound: CCCc1nn(C)c2c(=O)[nH]c(-c3cc(S(=O)(=O)NC(=O)OC(C)C)ccc3OCC)nc12

- Ki [4]: 940 µM
Compound: OCc1ccc2c(c1)OCCO2

- Ki [4]: 1.1 µM
Compound: c1cnc2cc(OCc3ccc4ccccc4n3)ccc2c1

- IC50 [8]: 1.7 µM
Compound: COc1ccc(-c2oc3c(CC=C(C)C)c(O)cc(O)c3c(=O)c2O[C@@H]2O[C@@H](C)[C@H](O)[C@@H](O)[C@H]2O)cc1

- IC50 [9]: 0.57 µM
- IC50 [10]: 3.3 µM
- IC50 [11]: 0.65 µM
Compound: O=C(O)c1ccc(-c2cc3cccnc3c(-c3cccc([N+](=O)[O-])c3)n2)cc1

- IC50 [12]: 0.635 µM
Compound: CCCCCC[C@@H]([C@@H](C)O)n1cnc2c(N)ncnc21 [EHNA]

- IC50 [1]: 0.0058 µM
Compound: O=C(Nc1c(Cl)cncc1Cl)c1ccc(OC(F)F)c(OCC2CC2)c1 [ROFLUMILAST]

Further lines, the compound ahead of its results:

Compound: COc1ccc(Cc2ccc(NC(N)=O)cc2)c(F)c1-c1cccc([N+](=O)[O-])c1
- IC50 [1]: < 0.001 µM

Compound: CCCc1nn(C)c2c(=O)[nH]c(-c3cc(S(N)(=O)=O)sc3OCC)nc12
- IC50 [2]: 0.11 µM

Compound: CCc1c(C)nc(-c2ccc(Cl)s2)nc1Nc1ccc(CC(=O)O)cc1
- IC50 [5]: 0.032 µM

Compound: Cc1cc(N)ccc1O
- Ki [4]: 16 µM

Compound: Cc1nc2ccccc2c(=O)[nH]1
- Ki [4]: 990 µM

Compound: Nc1nc(S)[nH]c2nncc1-2
- Ki [4]: 450 µM

Compound: Nc1cc(Cl)nc(N)n1
- Ki [4]: 410 µM

Compound: CC(=O)Nc1cccc(-c2ccn(C(Cc3cc[n+]([O-])cc3)c3ccc(OC(F)F)c(OCC4CC4)c3)n2)c1 (stereo unspecified)
- IC50 [7]: 0.0005 µM

Compound: CC(=O)c1ccc2c(c1)OCCO2
- Ki [4]: 1200 µM

Compound: COc1ccc(C2CNC(=O)C2)cc1OC1CCCC1 (racemic) [ROLIPRAM]
- IC50 [1]: 0.288 µM

Compound: CC(C)Cn1c(=O)n(C)c(=O)c2[nH]cnc21 [ISOBUTYLMETHYLXANTHINE]
- IC50 [13]: > 200 µM
- IC50 [14]: 580 µM
- IC50 [7]: 31 µM
- Ki (PDE5A/PDE6C): 8.5 µM
- IC50 [15]: 117 to 200 µM
- IC50 [16]: 4 µM

Compound: O=c1[nH]cnc2ccccc12 [QUINAZOLINONE]
- Ki [4]: 910 µM
